Laboratory results from patent US11058119B2, “Biologicals and their use in plants” (priority 2015, dated 2021).

Key:
[1] = system: Metarhizium robertsii (15013-1); assay: Determination of fungicide sensitivity, conidia growth in liquid media; format: cell-based; conditions: 5,000 conidia in 0.5 ml YMA, 26° C., visual observation
Procedure: (§1) Conidia of Metarhizium robertsii (15013-1) and Metarhizium robertsii (23013-3) were produced by growing the fungus on potato dextrose agar plates for 1-2 weeks at 23° C. under continuous illumination from fluorescent lights. Conidia were harvested from the plate in water containing Tween-20 (0.01%) and counted using a hemacytometer. Fungicide sensitivity was determined by mixing 5,000 conidia in 0.5 ml of YMA (2 g yeast extract, 4 g malt extract per liter) liquid media containing varying concentrations of commercially available fungicides active against filamentous fungi in a 24 well plate. Plates were incubated for […] at 26° C. and then growth was assessed by visual observation with a stereomicroscope.

[2] = system: Metarhizium robertsii (23013-3); assay: as above; format: cell-based; conditions: 5,000 conidia in 0.5 ml YMA, 26° C., visual observation
Procedure: as §1

Row | SMILES | growth of 15013-1 conidia compared to a control without any fungicide ([1]; Fungicide Concentration 3 uM) | growth of 15013-1 conidia compared to a control without any fungicide ([1]; Fungicide Concentration 10 uM) | growth of 15013-1 conidia compared to a control without any fungicide ([1]; Fungicide Concentration 30 uM) | growth of 23013-3 conidia compared to a control without any fungicide ([2]; Fungicide Concentration 3 uM) | growth of 23013-3 conidia compared to a control without any fungicide ([2]; Fungicide Concentration 10 uM) | growth of 23013-3 conidia compared to a control without any fungicide ([2]; Fungicide Concentration 30 uM)
1 | CO/C=C(/C(=O)OC)c1ccccc1Oc1cc(Oc2ccccc2C#N)ncn1 [Azoxystrobin] | ++ (growth of about 20% or about 80% inhibition compared to a control without any fungicide) | + (growth of about 10% or about 90% inhibition compared to a control without any fungicide) | − | + (growth of about 10% or about 90% inhibition compared to a control without any fungicide) | − | −
2 | N#Cc1c[nH]cc1-c1cccc2c1OC(F)(F)O2 [Fludioxonil] | + (growth of about 10% or about 90% inhibition compared to a control without any fungicide) | + (growth of about 10% or about 90% inhibition compared to a control without any fungicide) | + (growth of about 10% or about 90% inhibition compared to a control without any fungicide) | + (growth of about 10% or about 90% inhibition compared to a control without any fungicide) | + (growth of about 10% or about 90% inhibition compared to a control without any fungicide) | + (growth of about 10% or about 90% inhibition compared to a control without any fungicide)
3 | c1ccc2[nH]c(-c3cscn3)nc2c1 [Thiabendazole] | ++++ (growth of about 50% or more compared to a control without any fungicide) | ++++ (growth of about 50% or more compared to a control without any fungicide) | ++++ (growth of about 50% or more compared to a control without any fungicide) | +++ (growth of about 30% or about 70% inhibition compared to a control without any fungicide) | ++++ (growth of about 50% or more compared to a control without any fungicide) | ++++ (growth of about 50% or more compared to a control without any fungicide)
